The values that follow come from BindingDB's records for doi:10.1016/j.chembiol.2017.03.002 (Jagiellonian University, 2017).

The target of this test is T1, Ubiquitin carboxyl-terminal hydrolase 2 [258-605] (Homo sapiens, UniProt O75604).
T1 construct: 258-605
T1 sequence (O75604 whole entry): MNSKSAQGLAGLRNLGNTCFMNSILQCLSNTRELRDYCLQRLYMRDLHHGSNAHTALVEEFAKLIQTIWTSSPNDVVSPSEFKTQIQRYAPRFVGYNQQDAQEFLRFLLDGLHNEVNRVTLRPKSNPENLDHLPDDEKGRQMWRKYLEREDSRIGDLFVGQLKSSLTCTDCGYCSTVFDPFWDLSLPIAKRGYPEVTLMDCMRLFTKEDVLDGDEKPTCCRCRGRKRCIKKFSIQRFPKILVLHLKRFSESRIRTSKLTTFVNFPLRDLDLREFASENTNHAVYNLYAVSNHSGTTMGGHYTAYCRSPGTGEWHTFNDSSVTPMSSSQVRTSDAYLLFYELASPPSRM
The test is described as follows: Ub-AMC-Hydrolysis Assay. On the procedure:
The assays were performed using Infinite 200 PRO - Tecan plate reader and 96-well, black Greiner microplates in a […] reaction volume. […]

For orientation: IC50 means the concentration that inhibits the measured activity by half. As for `COC(=O)C1CC[C@@]2(C)[C@H](CC[C@@H]3[C@@H]2CC[C@]2(C)[C@@H]([C@H](C)CCC(=O)O)CC[C@@H]32)C1` (stereo partly specified) [LCAE], the IC50 stood at 5.8 µM.
